This is an account of results in PubChem BioAssay AID330 (DTP/NCI, 2004).

The experiment deals with P388 leukemia ip, CD2F1 mice, survival T/C. The experiment is described as follows: NCI In Vivo Anticancer Drug Screen. Data for tumor model P388 Leukemia (intraperitoneal) in CD2F1 (CDF1) mice. Particulars: endpoint: median survival time, higher = longer survival. The method in brief:
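Mice carrying the transplanted tumor received test compound or vehicle. Survival was recorded in each group, and the value is the treated-group measurement divided by that of the vehicle-treated control group.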

Where [1] appears, read: dose: 6.25 mg/kg/injection, schedule: Q01DX005 (ip), vehicle: saline with Tween-80.
[2] abbreviates: dose: 12.5 mg/kg/injection, schedule: Q01DX005 (ip), vehicle: saline with Tween-80.
[3] abbreviates: dose: 50.0 mg/kg/injection, schedule: Q01DX005 (ip), vehicle: saline with Tween-80.
Where [4] appears, read: dose: 60.0 mg/kg/injection, schedule: Q01DX005 (ip), vehicle: saline with Tween-80.
[5] abbreviates: dose: 120.0 mg/kg/injection, schedule: Q01DX005 (ip), vehicle: saline with Tween-80.
[6] abbreviates: dose: 240.0 mg/kg/injection, schedule: Q01DX005 (ip), vehicle: saline with Tween-80.
The mark [7] stands for this setting: dose: 6.25 mg/kg/injection, schedule: Q01DX009 (ip), vehicle: distilled water + Tween-80.
The mark [8] stands for this setting: dose: 12.5 mg/kg/injection, schedule: Q01DX009 (ip), vehicle: distilled water + Tween-80.
Setting [9] is: dose: 25.0 mg/kg/injection, schedule: Q01DX009 (ip), vehicle: distilled water + Tween-80.
[10] abbreviates: dose: 50.0 mg/kg/injection, schedule: Q01DX009 (ip), vehicle: distilled water + Tween-80.
The mark [11] stands for this setting: dose: 100.0 mg/kg/injection, schedule: Q01DX009 (ip), vehicle: distilled water + Tween-80.
Where [12] appears, read: dose: 100.0 mg/kg/injection, schedule: Q04DX002 (ip), vehicle: saline with Tween-80.
Where [13] appears, read: dose: 200.0 mg/kg/injection, schedule: Q04DX002 (ip), vehicle: saline with Tween-80.
Where [14] appears, read: dose: 50.0 mg/kg/injection, schedule: Q01DX005 (ip), vehicle: Klucel (hydroxypropylcellulose) (HPC).

Structures are written as SMILES. Several values for one entry are separate records, joined by “and”; a condition that tells them apart may be missing. Equal values may be shown once. Inconclusive results and toxic doses are left out.

As for `Cc1c(O)ccc(N=O)c1O`, the T/C was 98 % of control under setting [1]; 94 % of control under setting [2]; 90 % of control (dose: 25.0 mg/kg/injection, schedule: Q01DX005 (ip), vehicle: saline with Tween-80); 93 % of control under setting [3].

`N#Cc1c(N)nc(N)nc1Nc1ccc(Cl)cc1`: the T/C under setting [4] was 113 % of control, the T/C under setting [5] was 110 % of control and the T/C under setting [6] is 115 % of control.

Consider `Oc1ccc2ccccc2c1C=Nc1ccc(N=Cc2c(O)ccc3ccccc23)cc1`, for which the T/C was 91 % of control (dose: 100.0 mg/kg/injection, schedule: Q01DX001 (ip), vehicle: saline with Tween-80); 90 % of control (dose: 200.0 mg/kg/injection, schedule: Q01DX001 (ip), vehicle: saline with Tween-80); 91 % of control (dose: 400.0 mg/kg/injection, schedule: Q01DX001 (ip), vehicle: saline with Tween-80).

Consider `CC(NNC(=S)N(C)C1CCCCC1)c1cc2ccccc2cn1` (stereo unspecified), for which the T/C runs as follows: under setting [1], 107 % of control; under setting [2], 120 % of control; under setting [3], 151 % of control and 159 % of control.

Regarding `CCN=NNc1ccc(C#N)cc1`, the T/C is 104 % of control under setting [7]; 109 % of control and 91 % of control under setting [8]; 119 % of control and 97 % of control under setting [9]; 100 % of control and 123 % of control under setting [10]; 106 % of control under setting [11].

In the case of `O=c1cc(O)c2ccc3ccccc3c2o1`, the T/C reads like this: under setting [3], 89 % of control; (dose: 100.0 mg/kg/injection, schedule: Q01DX005 (ip), vehicle: saline with Tween-80) 87 % of control; (dose: 200.0 mg/kg/injection, schedule: Q01DX005 (ip), vehicle: saline with Tween-80) 92 % of control.

As to `CC(=O)Nc1cccn(C)c1=O`, the T/C was 100 % of control under setting [7]; 100 % of control under setting [8]; 98 % of control (dose: 12.5 mg/kg/injection, schedule: Q01DX009 (ip), vehicle: water); 102 % of control under setting [9]; 123 % of control (dose: 25.0 mg/kg/injection, schedule: Q01DX009 (ip), vehicle: water); 107 % of control under setting [10]. In addition, the T/C was 112 % of control (dose: 50.0 mg/kg/injection, schedule: Q01DX009 (ip), vehicle: water); 120 % of control under setting [11]; 113 % of control (dose: 100.0 mg/kg/injection, schedule: Q01DX009 (ip), vehicle: water); 112 % of control (dose: 200.0 mg/kg/injection, schedule: Q01DX009 (ip), vehicle: water).

Take `CCCC(C)N(CC(=O)Nc1ccc(S(N)(=O)=O)cc1)C(C)=O` (stereo unspecified): the T/C was 100 % of control (dose: 50.0 mg/kg/injection, schedule: Q01DX009 (ip), vehicle: Klucel (hydroxypropylcellulose) (HPC)); 107 % of control (dose: 100.0 mg/kg/injection, schedule: Q01DX009 (ip), vehicle: Klucel (hydroxypropylcellulose) (HPC)); 109 % of control (dose: 200.0 mg/kg/injection, schedule: Q01DX009 (ip), vehicle: Klucel (hydroxypropylcellulose) (HPC)).

Consider `N#C/C(=C/c1cccs1)c1cccs1`, for which the T/C runs as follows: under setting [4], 100 % of control; under setting [5], 106 % of control; under setting [6], 109 % of control.

Take `C=C1CC(C)OC1=O` (stereo unspecified): the T/C is, setting by setting: under setting [12], 103 % of control; under setting [13], 111 % of control.

Consider `Cc1nc2sccc2c(=O)n1C`, for which the T/C was 97 % of control under setting [14]; 98 % of control (dose: 100.0 mg/kg/injection, schedule: Q01DX005 (ip), vehicle: Klucel (hydroxypropylcellulose) (HPC)); 103 % of control (dose: 200.0 mg/kg/injection, schedule: Q01DX005 (ip), vehicle: Klucel (hydroxypropylcellulose) (HPC)).

On to `O=C(c1ccc(O)cc1)c1ccc(O)cc1O`, for which the T/C is, setting by setting: (dose: 66.0 mg/kg/injection, schedule: Q01DX001 (ip), vehicle: saline) 100 % of control; (dose: 150.0 mg/kg/injection, schedule: Q01DX001 (ip), vehicle: saline) 88 % of control; (dose: 200.0 mg/kg/injection, schedule: Q01DX001 (ip), vehicle: saline) 100 % of control; (dose: 400.0 mg/kg/injection, schedule: Q01DX001 (ip), vehicle: saline) 100 % of control.

Take `CC(C)NCCCNCC(=O)Nc1ccc(S(=O)(=O)c2ccc(NC(=O)CNCCCNC(C)C)cc2)cc1`: the T/C runs as follows: (dose: 12.5 mg/kg/injection, schedule: Q01DX005 (ip), vehicle: Klucel (hydroxypropylcellulose) (HPC)) 104 % of control; (dose: 25.0 mg/kg/injection, schedule: Q01DX005 (ip), vehicle: Klucel (hydroxypropylcellulose) (HPC)) 102 % of control; under setting [14], 103 % of control.

Take `CCCCCCOC(=O)c1ccccc1OP(=O)(N(C)C)N(C)C`: the T/C runs as follows: (dose: 50.0 mg/kg/injection, schedule: Q01DX005 (ip), vehicle: saline) 98 % of control; (dose: 100.0 mg/kg/injection, schedule: Q01DX005 (ip), vehicle: saline) 101 % of control.

Turning to `O=S(=O)(Cc1ccc(Cl)cc1)Cc1ccc(Cl)cc1`, the T/C reads like this: (dose: 100.0 mg/kg/injection, schedule: Q04DX003 (ip), vehicle: saline sonified) 100 % of control; (dose: 200.0 mg/kg/injection, schedule: Q04DX003 (ip), vehicle: saline sonified) 100 % of control; (dose: 400.0 mg/kg/injection, schedule: Q04DX003 (ip), vehicle: saline sonified) 90 % of control.

For the compound `CC1=C(C(=O)Nc2ccccc2)C(c2ccccc2)C(C(=O)Nc2ccccc2)=C(C)N1`, the T/C runs as follows: under setting [12], 95 % of control; under setting [13], 94 % of control; (dose: 400.0 mg/kg/injection, schedule: Q04DX002 (ip), vehicle: saline with Tween-80) 94 % of control.

As to `O=C(Nc1nccs1)C(F)(F)F`, the T/C was 104 % of control (dose: 50.0 mg/kg/injection, schedule: Q01DX009 (ip), vehicle: saline with Tween-80); 104 % of control (dose: 100.0 mg/kg/injection, schedule: Q01DX009 (ip), vehicle: saline with Tween-80); 99 % of control (dose: 200.0 mg/kg/injection, schedule: Q01DX009 (ip), vehicle: saline with Tween-80); 108 % of control (dose: 400.0 mg/kg/injection, schedule: Q01DX009 (ip), vehicle: saline with Tween-80).

As for `OCC1OC(Oc2ccc(O)cc2)C(O)C(O)C1O` (stereo unspecified), the T/C reads like this: (dose: 4.5 mg/kg/injection, schedule: Q01DX009 (ip), vehicle: Klucel (hydroxypropylcellulose) (HPC)) 97 % of control; (dose: 9.0 mg/kg/injection, schedule: Q01DX009 (ip), vehicle: Klucel (hydroxypropylcellulose) (HPC)) 90 % of control; (dose: 18.0 mg/kg/injection, schedule: Q01DX009 (ip), vehicle: Klucel (hydroxypropylcellulose) (HPC)) 90 % of control; (dose: 36.0 mg/kg/injection, schedule: Q01DX009 (ip), vehicle: Klucel (hydroxypropylcellulose) (HPC)) 98 % of control; (dose: 50.0 mg/kg/injection, schedule: Q01DX009 (ip), vehicle: saline) 102 % of control; (dose: 100.0 mg/kg/injection, schedule: Q01DX009 (ip), vehicle: saline) 102 % of control. Also, the T/C is, setting by setting: (dose: 200.0 mg/kg/injection, schedule: Q01DX009 (ip), vehicle: saline) 102 % of control; (dose: 400.0 mg/kg/injection, schedule: Q01DX009 (ip), vehicle: saline) 106 % of control.

Regarding `CC(/C=C1\C(=O)N(C)C(CC(C)C(Cl)(Cl)Cl)C(=O)N1C)C(Cl)(Cl)Cl` (stereo unspecified), the T/C is, setting by setting: (dose: 4.75 mg/kg/injection, schedule: Q01DX005 (ip), vehicle: saline with Tween-80) 101 % of control; (dose: 9.5 mg/kg/injection, schedule: Q01DX005 (ip), vehicle: saline with Tween-80) 100 % of control; (dose: 19.0 mg/kg/injection, schedule: Q01DX005 (ip), vehicle: saline with Tween-80) 95 % of control; (dose: 38.0 mg/kg/injection, schedule: Q01DX005 (ip), vehicle: saline with Tween-80) 101 % of control.

Turning to `CCOC(C)(OCC)N(C)C` (tested in a mixture with another compound), the T/C reads like this: (dose: 35.5 mg/kg/injection, schedule: Q01DX005 (ip), vehicle: saline with Tween-80) 101 % of control; (dose: 71.0 mg/kg/injection, schedule: Q01DX005 (ip), vehicle: saline with Tween-80) 102 % of control; (dose: 142.0 mg/kg/injection, schedule: Q01DX005 (ip), vehicle: saline with Tween-80) 118 % of control.
